Source: patent publication US11235029B2, “Methods for treating heart failure with a TRKB agonist” (Temple University-Of The Commonwealth System of Higher …, priority 2017, dated 2022)

How the values were obtained:
[1] = test system: mice with myocardial infarction; test: chronic infusion of TrkB agonist in mice with myocardial infarction (echocardiography, fibrosis, heart rate); assay type: in vivo
Protocol: FIG. 7, comprising FIG. 7A through FIG. 7C, depicts experimental results. FIG. 7A depicts rescue of cardiac defects following MI resulting from chronic infusion of LM22A-4, a specific agonist of TrkB (Massa S M, et a. J Clin Invest. 2010; 120:1774-85) at 0.2 mg/kg/day in saline, started 1 week after MI. […] FIG. 7B depicts cardiac tissue sections and quantitation of fibrosis observed in sham, MI, and MI+LM22A-4 groups. Compared to the MI group without treatment, fibrosis was lower in TrkB agonist-treated hearts.
FIG. 7A depicts rescue of cardiac defects following FIG. 7A depicts rescue of cardiac defects following MI resulting from chronic infusion of LM22A-4, a specific agonist of TrkB (Massa S M, et al. J Clin Invest. 2010; 120:1774-85), at 0.2 mg/kg/day in saline, started 1 week after MI.
Overall fibrosis was lower in TrkB agonist-treated hearts (FIG. 7B). FIG. 7B depicts cardiac tissue sections and quantitation of fibrosis observed in sham, MI, and MI+LM22A-4 groups. Compared to the MI group without treatment, fibrosis was lower in TrkB agonist-treated hearts.

BDNF = BDNF immunoblot of lysates from isolated control myocytes; assay type: cell-based
eNOS = test: immunoblot of eNOS phosphorylated at serine 1177 in myocytes; assay type: cell-based; details: acute infusion, 100 nM
Text: FIG. 8 depicts an immunoblot of eNOS phosphorylated at serine 1177 (^ser1177p-eNOS) and total eNOS (t-eNOS), taken from myocytes under control conditions (NS) and treated with LM22A-4.
Another possible mechanism of protection granted by TrkB stimulation is eNOS stimulation. […] Thus, it is plausible that TrkB agonists enhance eNOS signaling. FIG. 8 depicts an immunoblot of eNOS phosphorylated at serine 1177 (^ser1177p-eNOS) and total eNOS (t-eNOS), taken from myocytes under control conditions (NS) and treated with LM22A-4.

[2] = 0.2 mg/kg/day in saline, chronic infusion started 1 week after MI, 4 weeks after severe MI

O=C(NCCO)c1cc(C(=O)NCCO)cc(C(=O)NCCO)c1 [LM22A-4, N,N′,N″-tris(2-hydroxyethyl)-1,3,5-benzenetricarboxamide] was tested, and the LVDs [1, 2] was 6.1±0.25 mm, the “ejection fraction (% EF)” value [1, 2] was 23.3±2.1% and the “fibrosis compared to the MI group without treatment” value ([1]; cardiac tissue sections, MI+LM22A-4 group) was “lower”. For the same compound, the heart rate ([1]; chronic infusion, MI mice) was 494±17.8 bpm, the “myocardial BDNF (immunoblot)” value (BDNF) was “induced myocardial BDNF” and the “eNOS activation by phosphorylation at serine 1177” value (eNOS) was “activates eNOS”.
